{"source": "patent US20150218654A1", "about": "“METHODS FOR PREDICTING MULTIPLE MYELOMA TREATMENT RESPONSE” (INSERM (INSTITUT NATIONAL DE LA SANTÉ ET DE LA RE- CHERCHE …, priority 2012, published 2015)", "test_system": "primary myeloma cells of patients (CD138+ viable plasma cells)", "assay": "Mononuclear cell culture of patients' tumor samples, count of viable CD138+ myeloma cells by flow cytometry", "format": "cell-based, human", "description": "Mononuclear cells from tumor samples of 12 patients with MM were cultured for 4 days in the presence of IL-6 (2 ng/ml) with or without graded decitabine concentrations. At day 4 of culture, the cell count and the viability were determined and the percentage of CD138^+ viable plasma cells was determined by flow cytometry. Black color represents patients with high DM Score (N=6) and white represents patients with low DM Score values (N=6).\nMononuclear cells from tumor samples of 14 patients with MM were cultured for 4 days in the presence of IL-6 (2 ng/ml) with or without graded 5-azacitidine concentrations. At day 4 of culture, the count of viable CD138′ MMCs was determined using flow cytometry. The black columns represent the mean±SD of primary myeloma cell counts (expressed as the percentage of the count without adding 5-azcytidine) of the 7 patients with a low DM Score and the white columns that of the 7 patients with a high DM Score.\nMononuclear cells from tumor samples of 12 patients with MM (agreement of the Center for Biological Resources of Montpellier University Hospital (N° DC-2008-417)) were cultured for 4 days at 2×10^5 cells/ml in RPMI 1640 medium, 10% FCS, 2 ng/ml IL-6, with or without graded concentrations of decitabine. In each culture group, viability and cell counts were assayed and MMCs were stained with an anti-CD138-PE mAb (Immunotech, Marseille, France) as previously described (32).\nPrimary myeloma cells of 14 patients were cultured with or without graded concentrations of 5-azacitidine and MMC cytotoxicity evaluated using anti-CD138-PE mAb (Immunotech, Marseille, France) as described (Jourdan, et al 1998; Mahtouk, et al 2004; Moreaux, et al 2012).", "note": "Several values for one entry are separate records, joined by “and”; a condition that tells them apart may be missing. Equal entries are not always repeated."}
{"smiles": "Nc1ncn([C@H]2C[C@H](O)[C@@H](CO)O2)c(=O)n1", "note": "[decitabine, 5-Aza-2′-deoxycytidine]", "values": [{"measurement": "Myeloma cell number/culture well, Mean", "setting": "0.125 μM decitabine, day 4, mean of 6 patients with high DM Score", "value": 54391}, {"measurement": "Myeloma cell number/culture well, Mean", "setting": "0.125 μM decitabine, day 4, mean of 6 patients with low DM Score", "value": 43748}, {"measurement": "Myeloma cell number/culture well", "setting": "0.125 μM decitabine, day 4, single patients with high DM Score", "value": "43320 and 49096 and 40432 and 63536 and 69312 and 60648"}, {"measurement": "Myeloma cell number/culture well", "setting": "0.125 μM decitabine, day 4, single patients with low DM Score", "value": "26100 and 51984 and 77976 and 54336 and 1066 and 51024"}, {"measurement": "Myeloma cell number/culture well, Mean", "setting": "0.5 μM decitabine, day 4, mean of 6 patients with high DM Score", "value": 38622}, {"measurement": "Myeloma cell number/culture well, Mean", "setting": "0.5 μM decitabine, day 4, mean of 6 patients with low DM Score", "value": 38834}, {"measurement": "Myeloma cell number/culture well", "setting": "0.5 μM decitabine, day 4, single patients with high DM Score", "value": "36738 (2×) and 31086 and 28260 and 56520 and 42390"}, {"measurement": "Myeloma cell number/culture well", "setting": "0.5 μM decitabine, day 4, single patients with low DM Score", "value": "27195 and 45216 and 53694 and 51300 and 870 and 54726"}, {"measurement": "Myeloma cell number/culture well, Mean", "setting": "2 μM decitabine, day 4, mean of 6 patients with high DM Score", "value": 24024}, {"measurement": "Myeloma cell number/culture well, Mean", "setting": "2 μM decitabine, day 4, mean of 6 patients with low DM Score", "value": 30672}, {"measurement": "Myeloma cell number/culture well", "setting": "2 μM decitabine, day 4, single patients with high DM Score", "value": "20592 (2×) and 22880 and 18304 and 29744 and 32032"}, {"measurement": "Myeloma cell number/culture well", "setting": "2 μM decitabine, day 4, single patients with low DM Score", "value": "21028 and 32032 and 22880 and 51230 and 1044 and 55818"}, {"measurement": "Myeloma cell number/culture well, Mean", "setting": "8 μM decitabine, day 4, mean of 6 patients with high DM Score", "value": 12808}, {"measurement": "Myeloma cell number/culture well, Mean", "setting": "8 μM decitabine, day 4, mean of 6 patients with low DM Score", "value": 26080}, {"measurement": "Myeloma cell number/culture well", "setting": "8 μM decitabine, day 4, single patients with high DM Score", "value": "5800 and 11600 and 10150 and 18850 and 17400 and 13050"}, {"measurement": "Myeloma cell number/culture well", "setting": "8 μM decitabine, day 4, single patients with low DM Score", "value": "18265 and 21750 and 14500 and 53486 and 1039 and 47440"}, {"measurement": "fold higher decitabine sensitivity", "setting": "primary MMCs with DM Score above median (−19.7) versus below median, P<0.01", "value": 2.2, "unit": "fold"}]}
